Source: patent US12024503B2, “Benzethers and anilines of pyrazolyl-amino-pyrimidinyl derivatives, and compositions and methods thereof” (LYNK PHARMACEUTICALS CO. LTD., priority 2019, dated 2024)
Like-named read-outs stand apart in the source and are kept apart here.

Legend:
Format in all cases: biochemical
JAK2 = biological target: T1, JAK2 (Homo sapiens, UniProt O60674); experiment: JAK2 microfluidic kinase assay (Caliper EZ Reader II, FAM labeled peptide substrate); settings: (0.25 nM), 1 mM ATP
T1 construct: purchased Carna Biosciences
Protocol: (§1) Compounds were tested against JAK1, JAK2, JAK2V617F and TYK2.
(§2) Assay Formats: JAK activity was determined in the reaction buffer 50 mM HEPES, 0.01% Brij35, 10 mMMgCl2, 2 mMDTT by a microfluidic assay. The phosphorylation of a FAM labeled peptide substrate was monitored in the Caliper EZ Reader II (Perkin Elmer). The assay condition for each batch of enzyme (Carna Biosciences) was optimized to obtain 10% conversion rate of peptide substrate.
(§3) The test compounds were dissolved in DMSO to a stock concentration of 10 mM. 3-fold serially diluted compounds with top concentration of 5 μM were pre-incubated with JAK1, JAK2, JAK2V617F or TYK2 for 10 min at ambient temperature. The final DMSO concentration of assay mixture was 1%. FAM labeled peptide substrate (final concentration […]) and ATP (1 mM concentration) were sequentially added to initiate the kinase reaction at 28° C. The reaction was stopped by adding 50 mMEDTA. The reaction time for JAK1, JAK2, JAK2V617F and TYK2 was 120 min, 20 min, 30 min and 10 min, respectively.
(§4) The well in the test plate without enzyme was defined as 100% inhibition. And the well without compound but with equivalent DMSO was defined as no inhibition. The percent inhibition was calculated by the following formula. % Inhibition=(Conversionmax−Conversionsample)/(Conversionmax−Conversionmin)*100Conversionmax means the conversion rate in the positive well without addition of compound Conversionmin means the conversion rate in the well without addition of enzyme Conversionsample means the conversion rate of test compounds
(§5) The dose-response (percent inhibition) curve was plotted and IC50 values were determined by GraphPad software.

JAK1 = biological target: T2, JAK1 (Homo sapiens, UniProt P23458); experiment: JAK1 microfluidic kinase assay (Caliper EZ Reader II, FAM labeled peptide substrate); settings: (5 nM), 1 mM ATP
T2 construct: purchased Carna Biosciences
Protocol: as §1, §2, §3, §4, §5

JAK2V617F = biological target: T3, JAK2V617F (Homo sapiens, UniProt O60674, V617F); experiment: JAK2V617F microfluidic kinase assay (Caliper EZ Reader II, FAM labeled peptide substrate); settings: (2.5 nM), 1 mM ATP
T3 construct: purchased Carna Biosciences
Protocol: as §1, §2, §3, §4, §5

TYK2 = biological target: T4, TYK2 (Homo sapiens, UniProt P29597); experiment: TYK2 microfluidic kinase assay (Caliper EZ Reader II, FAM labeled peptide substrate); settings: (2.5 nM), 1 mM ATP
T4 construct: purchased Carna Biosciences
Protocol: as §1, §2, §3, §4, §5

[1] = Table 2, read-out: IC50 JAK2 (0.25 nM) (1 mM ATP)
[2] = Table 2, read-out: IC50 JAK1 (5 nM) (1 mM ATP)
[3] = Table 2, read-out: IC50 J2V617F (2.5 nM) (1 mM ATP)
[4] = Table 2, read-out: IC50 TYK2 (2.5 nM) (1 mM ATP)
[5] = Table 3B, literature compounds, read-out: JAK2 (0.25 nM) (1 mM ATP)
[6] = Table 3B, literature compounds, read-out: JAK1 (5 nM) (1 mM ATP)
[7] = Table 3B, literature compounds, read-out: J2V617F (2.5 nM) (1 mM ATP)
[8] = Table 3B, literature compounds, read-out: TYK2 (2.5 nM) (1 mM ATP)

T2 sequence (P23458 whole entry): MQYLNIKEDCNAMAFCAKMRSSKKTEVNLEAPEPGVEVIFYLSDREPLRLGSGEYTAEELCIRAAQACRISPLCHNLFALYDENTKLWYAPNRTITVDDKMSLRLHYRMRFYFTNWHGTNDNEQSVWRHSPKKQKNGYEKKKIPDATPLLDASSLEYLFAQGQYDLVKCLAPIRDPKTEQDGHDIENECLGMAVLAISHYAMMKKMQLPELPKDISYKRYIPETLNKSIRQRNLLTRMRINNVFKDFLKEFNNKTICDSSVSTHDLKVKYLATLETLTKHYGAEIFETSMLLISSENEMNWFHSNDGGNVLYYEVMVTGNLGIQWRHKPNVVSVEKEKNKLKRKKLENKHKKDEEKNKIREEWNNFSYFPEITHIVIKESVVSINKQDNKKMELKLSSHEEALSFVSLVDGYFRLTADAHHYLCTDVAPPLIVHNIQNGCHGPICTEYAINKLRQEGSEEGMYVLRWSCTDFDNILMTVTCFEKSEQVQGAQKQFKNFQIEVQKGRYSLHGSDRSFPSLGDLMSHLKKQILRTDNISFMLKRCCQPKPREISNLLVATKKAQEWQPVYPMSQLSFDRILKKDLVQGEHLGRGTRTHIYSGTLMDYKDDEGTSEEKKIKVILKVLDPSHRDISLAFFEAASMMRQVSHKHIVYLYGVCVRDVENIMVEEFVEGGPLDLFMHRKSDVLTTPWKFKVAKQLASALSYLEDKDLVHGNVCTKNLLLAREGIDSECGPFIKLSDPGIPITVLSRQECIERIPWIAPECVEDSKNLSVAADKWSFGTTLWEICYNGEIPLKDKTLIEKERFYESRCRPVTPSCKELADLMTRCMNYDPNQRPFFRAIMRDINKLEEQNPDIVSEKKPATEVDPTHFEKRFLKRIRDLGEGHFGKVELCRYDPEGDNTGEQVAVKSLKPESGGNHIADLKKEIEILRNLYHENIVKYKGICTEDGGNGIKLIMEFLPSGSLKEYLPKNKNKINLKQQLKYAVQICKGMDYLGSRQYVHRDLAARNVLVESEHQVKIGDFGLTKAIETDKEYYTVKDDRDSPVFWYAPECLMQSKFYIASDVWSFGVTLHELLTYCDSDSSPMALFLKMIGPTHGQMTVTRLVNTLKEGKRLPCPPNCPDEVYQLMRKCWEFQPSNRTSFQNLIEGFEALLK
T4 sequence (P29597 whole entry): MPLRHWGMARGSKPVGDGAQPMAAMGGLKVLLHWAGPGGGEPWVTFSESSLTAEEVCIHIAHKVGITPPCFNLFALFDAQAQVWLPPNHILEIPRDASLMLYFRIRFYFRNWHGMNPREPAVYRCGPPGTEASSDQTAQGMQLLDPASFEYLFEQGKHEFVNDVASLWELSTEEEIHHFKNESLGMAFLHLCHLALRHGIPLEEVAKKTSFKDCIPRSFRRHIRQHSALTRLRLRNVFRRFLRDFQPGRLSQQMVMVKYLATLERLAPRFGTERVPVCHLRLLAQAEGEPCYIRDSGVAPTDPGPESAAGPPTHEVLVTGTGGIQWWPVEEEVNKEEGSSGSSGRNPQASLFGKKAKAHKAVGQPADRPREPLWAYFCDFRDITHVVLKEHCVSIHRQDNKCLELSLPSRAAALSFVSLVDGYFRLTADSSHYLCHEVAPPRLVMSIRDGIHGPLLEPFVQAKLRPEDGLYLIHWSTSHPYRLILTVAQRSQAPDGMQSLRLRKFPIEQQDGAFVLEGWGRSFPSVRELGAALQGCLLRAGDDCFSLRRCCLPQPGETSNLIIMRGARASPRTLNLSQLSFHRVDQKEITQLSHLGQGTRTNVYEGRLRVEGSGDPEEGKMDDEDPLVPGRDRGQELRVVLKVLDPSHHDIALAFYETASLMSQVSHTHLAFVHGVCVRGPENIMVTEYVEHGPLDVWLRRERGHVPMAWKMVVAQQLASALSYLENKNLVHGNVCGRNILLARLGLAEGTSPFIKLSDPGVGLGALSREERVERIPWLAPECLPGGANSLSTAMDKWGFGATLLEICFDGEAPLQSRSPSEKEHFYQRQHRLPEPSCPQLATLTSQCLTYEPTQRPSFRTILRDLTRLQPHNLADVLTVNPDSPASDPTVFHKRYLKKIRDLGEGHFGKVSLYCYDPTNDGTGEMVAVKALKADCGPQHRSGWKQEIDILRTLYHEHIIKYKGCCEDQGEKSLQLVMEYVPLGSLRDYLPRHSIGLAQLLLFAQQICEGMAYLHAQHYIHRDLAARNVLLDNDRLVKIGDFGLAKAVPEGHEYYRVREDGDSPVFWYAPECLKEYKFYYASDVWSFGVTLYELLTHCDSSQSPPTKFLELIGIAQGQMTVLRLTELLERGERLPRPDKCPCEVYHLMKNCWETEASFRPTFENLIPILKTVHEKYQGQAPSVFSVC
T3 sequence (O60674 whole entry V617F): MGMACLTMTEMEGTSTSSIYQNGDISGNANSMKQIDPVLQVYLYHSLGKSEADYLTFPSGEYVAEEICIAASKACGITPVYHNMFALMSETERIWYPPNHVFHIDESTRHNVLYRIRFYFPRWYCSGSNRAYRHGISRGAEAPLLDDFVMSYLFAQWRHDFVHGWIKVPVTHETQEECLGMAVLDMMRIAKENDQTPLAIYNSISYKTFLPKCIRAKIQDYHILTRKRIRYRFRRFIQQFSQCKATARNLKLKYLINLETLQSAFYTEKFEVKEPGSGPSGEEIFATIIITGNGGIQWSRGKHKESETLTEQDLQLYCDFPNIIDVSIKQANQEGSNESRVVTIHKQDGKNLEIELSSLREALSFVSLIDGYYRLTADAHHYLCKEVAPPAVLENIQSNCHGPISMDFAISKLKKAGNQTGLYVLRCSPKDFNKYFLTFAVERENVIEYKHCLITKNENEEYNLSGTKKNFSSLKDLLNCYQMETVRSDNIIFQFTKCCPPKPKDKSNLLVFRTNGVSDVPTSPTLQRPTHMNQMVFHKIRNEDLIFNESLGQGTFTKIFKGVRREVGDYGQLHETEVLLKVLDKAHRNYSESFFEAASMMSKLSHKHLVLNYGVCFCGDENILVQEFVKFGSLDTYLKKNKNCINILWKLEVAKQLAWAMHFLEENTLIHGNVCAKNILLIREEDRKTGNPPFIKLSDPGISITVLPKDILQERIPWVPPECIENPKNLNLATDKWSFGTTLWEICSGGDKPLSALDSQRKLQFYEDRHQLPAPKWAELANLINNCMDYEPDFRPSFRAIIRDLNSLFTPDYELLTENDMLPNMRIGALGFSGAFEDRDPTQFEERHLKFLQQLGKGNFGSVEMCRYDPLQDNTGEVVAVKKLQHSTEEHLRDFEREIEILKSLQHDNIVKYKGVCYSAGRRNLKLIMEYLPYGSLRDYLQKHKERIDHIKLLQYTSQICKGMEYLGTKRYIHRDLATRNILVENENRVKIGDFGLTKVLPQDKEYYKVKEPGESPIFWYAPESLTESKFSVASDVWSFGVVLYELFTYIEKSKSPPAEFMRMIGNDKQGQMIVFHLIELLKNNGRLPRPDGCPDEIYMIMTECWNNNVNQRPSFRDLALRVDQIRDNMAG
T1 sequence (O60674 whole entry): as the sequence (O60674 whole entry V617F) above, with F617V counted along it

| SMILES | IC50 (JAK2; [1]) | IC50 (JAK1; [2]) | IC50 (JAK2V617F; [3]) | IC50 (TYK2; [4]) | IC50 (JAK2; [5]) | IC50 (JAK1; [6]) | IC50 (JAK2V617F; [7]) | IC50 (TYK2; [8]) |
| --- | --- | --- | --- | --- | --- | --- | --- | --- |
| COCCn1cc(Nc2ncc(C)c(-c3ccc(OCC(C)(C)C#N)c(F)c3)n2)cn1 [Example 19, 3-(2-fluoro-4-(2-((1-(2-methoxyethyl)-1H-pyrazol-4-yl)amino)-5-methylpyrimidin-4-yl)phenoxy)-2,2-dimethylpropanenitrile] | < 0.25 nM | < 2.5 nM | < 1.25 nM | < 1.25 nM | – | – | – | – |
| COCCn1cc(Nc2ncc(C)c(-c3ccc(OCC4(C#N)CC4)c(F)c3)n2)cn1 [Example 21, 1-((2-fluoro-4-(2-((1-(2-methoxyethyl)-1H-pyrazol-4-yl)amino)-5-methylpyrimidin-4-yl)phenoxy)methyl)cyclopropane-carbonitrile] | < 0.25 nM | 7.31 nM | < 1.25 nM | < 1.25 nM | – | – | – | – |
| Cc1cnc(Nc2cnn(C3CC3)c2)nc1-c1ccc(N(C)CC2(C#N)CC2)c(F)c1 [Example 33, 1-(((4-(2-((1-cyclopropyl-1H-pyrazol-4-yl)amino)-5-methylpyrimidin-4-yl)-2-fluorophenyl)(methyl)amino)methyl) cyclopropanecarbonitrile] | < 0.25 nM | 10.8 nM | 6.16 nM | 30 nM | – | – | – | – |
| CCOc1ccc(-c2nc(Nc3cnn(C)c3)ncc2C)cc1F [Example 46, 4-(4-ethoxy-3-fluorophenyl)-5-methyl-N-(1-methyl-1H-pyrazol-4-yl)pyrimidin-2-amine, reference compound] | – | – | – | – | 60.6 nM | 40.6 nM | 86.3 nM | 74.9 nM |

Now from value to compound:

| IC50 (JAK2; [1]) | IC50 (JAK1; [2]) | IC50 (JAK2V617F; [3]) | IC50 (TYK2; [4]) | IC50 (JAK2; [5]) | IC50 (JAK1; [6]) | IC50 (JAK2V617F; [7]) | IC50 (TYK2; [8]) | SMILES |
| --- | --- | --- | --- | --- | --- | --- | --- | --- |
| – | – | – | – | 80.7 nM | 52.6 nM | 103 nM | 41.3 nM | CCOc1ccc(-c2nc(Nc3cnn(C(C)C)c3)ncc2C)cc1F [Example 49, 4-(4-ethoxy-3-fluorophenyl)-N-(1-isopropyl-1H-pyrazol-4-yl)-5-methylpyrimidin-2-amine, reference compound] |
| – | – | – | – | 201 nM | 151 nM | 343 nM | 157 nM | CCOc1ccc(-c2nc(Nc3cnn(C)c3)ncc2C)cc1 [Example 50, 4-(4-ethoxyphenyl)-5-methyl-N-(1-methyl-1H-pyrazol-4-yl)pyrimidin-2-amine, reference compound] |
